Measurements taken from patent US10597388B2, “Pyridazinone herbicides” (FMC CORPORATION, priority 2014, dated 2020).

Columns and labels:
Experiment in all cases: Test C greenhouse herbicide test, pre- and postemergence
Assay type in all cases: in vivo
[1] = tested on: barnyardgrass (Echinochloa crus-galli)
Summary of the method: (§1)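 Two application timings: at sowing into a soil/sand blend, and on 2–18 cm seedlings in peat-vermiculite potting mix. A non-phytotoxic, surfactant-containing solvent carried the compounds. Plants were compared with controls and rated visually on 0–100 after 13–15 d.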

[2] = tested on: blackgrass (Alopecurus myosuroides)
Summary of the method: as §1

[3] = tested on: corn (Zea mays)
Summary of the method: as §1

[4] = tested on: crabgrass, large (large crabgrass, Digitaria sanguinalis)
Summary of the method: as §1

[5] = tested on: foxtail, giant (giant foxtail, Setaria faberii)
Summary of the method: as §1

[6] = tested on: galium (catchweed bedstraw, Galium aparine)
Summary of the method: as §1

[7] = tested on: lambsquarters (Chenopodium album)
Summary of the method: as §1

[8] = tested on: morningglory (Ipomoea coccinea)
Summary of the method: as §1

[9] = tested on: nutsedge, yellow (yellow nutsedge, Cyperus esculentus)
Summary of the method: as §1

[10] = tested on: oilseed rape (Brassica napus)
Summary of the method: as §1

[11] = tested on: ragweed (common ragweed, Ambrosia elatior)
Summary of the method: as §1

[12] = tested on: ryegrass, Italian (Italian ryegrass, Lolium multiflorum)
Summary of the method: as §1

[13] = tested on: soybean (Glycine max)
Summary of the method: as §1

[14] = tested on: velvetleaf (Abutilon theophrasti)
Summary of the method: as §1

[15] = tested on: waterhemp (common waterhemp, Amaranthus rudis)
Summary of the method: as §1

[16] = Postemergence, 31 g ai/ha, scale 0 to 100 (0 no effect, 100 complete control)
[17] = Postemergence, 125 g ai/ha, scale 0 to 100, 0 is no effect, 100 is complete control
[18] = Postemergence, 250 g ai/ha, scale 0 to 100, 0 no effect, 100 complete control, 13 to 15 d
[19] = Preemergence, 31 g ai/ha, scale 0 to 100, 0 is no effect, 100 is complete control
[20] = Preemergence, 62 g ai/ha, scale 0 to 100, 0 is no effect, 100 is complete control
[21] = Preemergence, 125 g ai/ha, scale 0 to 100, 0 is no effect, 100 is complete control
[22] = Preemergence, 250 g ai/ha, scale 0 to 100, 0 no effect, 100 complete control
[23] = postemergence, 62 g ai/ha, scale 0 to 100, 0 no effect, 100 complete control
[24] = Postemergence, 62 g ai/ha, 0 to 100 scale (0 no effect, 100 complete control)

Cc1nn(C)c(=O)c(-c2c(C)sc3ccc(C(F)(F)F)cc23)c1O [Compound 121]
20: Plant response rating, Barnyardgrass [1, 16] | Barnyardgrass plant response rating [1, 23] | Plant response rating, Crabgrass, Large [4, 17] | Plant response rating, Foxtail, Giant [5, 16] | Plant response rating, Foxtail, Giant [5, 19] | Plant response rating, Nutsedge, Yellow [9, 21]
25: Plant response rating, Barnyardgrass [1, 17] | Plant response rating, Morningglory [8, 19] | Plant response rating, Nutsedge, Yellow [9, 20]
70: Plant response rating, Foxtail, Giant [5, 17] | Plant response rating, Oilseed Rape [10, 16] | Plant response rating, Waterhemp [15, 18] | Plant response rating, Waterhemp [15, 19]
60: Barnyardgrass plant response rating [1, 22] | Blackgrass plant response rating [2, 22] | Plant response rating, Lambsquarters [7, 19] | Plant response rating, Velvetleaf [14, 19] | Plant response rating, Waterhemp [15, 16]
75: Plant response rating, Nutsedge, Yellow [9, 18] | Plant response rating, Ragweed [11, 16] | Plant response rating, Ryegrass, Italian [12, 19] | Plant response rating, Velvetleaf [14, 17] | Plant response rating, Velvetleaf [14, 20] | Plant response rating, Waterhemp [15, 17]
100: Galium plant response rating [6, 22] | Plant response rating, Lambsquarters [7, 18] | Lambsquarters plant response rating [7, 22] | Plant response rating, Morningglory [8, 17] | Ryegrass, Italian plant response rating [12, 22] | Waterhemp plant response rating [15, 22]
10: Plant response rating, Barnyardgrass [1, 20] | Plant response rating, Blackgrass [2, 19] | Plant response rating, Crabgrass, Large [4, 16] | Plant response rating, Crabgrass, Large [4, 20] | Plant response rating, Crabgrass, Large [4, 21] | Plant response rating, Nutsedge, Yellow [9, 19] | Plant response rating, Velvetleaf [14, 16]
15: Plant response rating, Blackgrass [2, 17] | Blackgrass plant response rating [2, 23]
45: Plant response rating, Blackgrass [2, 20] | Plant response rating, Blackgrass [2, 21] | Plant response rating, Nutsedge, Yellow [9, 16]
0: Plant response rating, Blackgrass [2, 16] | Plant response rating, Corn [3, 16] | Plant response rating, Corn [3, 19] | Plant response rating, Corn [3, 20] | Plant response rating, Corn [3, 21] | Plant response rating, Crabgrass, Large [4, 19] | Plant response rating, Oilseed Rape [10, 19] | Plant response rating, Soybean [13, 16] | Plant response rating, Soybean [13, 17] | Plant response rating, Soybean [13, 18] | Plant response rating, Soybean [13, 19] | Plant response rating, Soybean [13, 20] | Plant response rating, Soybean [13, 21] | Soybean plant response rating [13, 22]
30: Plant response rating, Barnyardgrass [1, 18] | Plant response rating, Oilseed Rape [10, 21]
35: Crabgrass, Large plant response rating [4, 22] | Plant response rating, Ragweed [11, 19]
80: Plant response rating, Lambsquarters [7, 20] | Plant response rating, Velvetleaf [14, 18]
85: Plant response rating, Foxtail, Giant [5, 18] | Plant response rating, Morningglory [8, 21] | Plant response rating, Nutsedge, Yellow [9, 17] | Plant response rating, Oilseed Rape [10, 17] | Plant response rating, Oilseed Rape [10, 20] | Oilseed Rape plant response rating [10, 22] | Plant response rating, Ryegrass, Italian [12, 16] | Plant response rating, Velvetleaf [14, 21] | Plant response rating, Waterhemp [15, 21]
98: Plant response rating, Galium [6, 21] | Plant response rating, Lambsquarters [7, 17] | Plant response rating, Lambsquarters [7, 21] | Plant response rating, Morningglory [8, 16] | Plant response rating, Morningglory [8, 18] | Plant response rating, Ragweed [11, 18] | Plant response rating, Ragweed [11, 21] | Ragweed plant response rating [11, 22]
40: Plant response rating, Crabgrass, Large [4, 18]
90: Plant response rating, Foxtail, Giant [5, 21] | Plant response rating, Galium [6, 16] | Plant response rating, Galium [6, 19] | Plant response rating, Galium [6, 20] | Plant response rating, Lambsquarters [7, 16] | Morningglory plant response rating [8, 22] | Plant response rating, Ryegrass, Italian [12, 17] | Plant response rating, Ryegrass, Italian [12, 18] | Plant response rating, Ryegrass, Italian [12, 20]
50: Plant response rating, Blackgrass [2, 18] | Nutsedge, Yellow plant response rating [9, 22]
55: Plant response rating, Barnyardgrass [1, 21] | Plant response rating, Foxtail, Giant [5, 20] | Plant response rating, Morningglory [8, 20] | Plant response rating, Oilseed Rape [10, 18]
5: Plant response rating, Barnyardgrass [1, 19] | Plant response rating, Corn [3, 17] | Plant response rating, Corn [3, 18] | Corn plant response rating [3, 22] | Corn plant response rating [3, 23] | Crabgrass, Large plant response rating [4, 23]
95: Foxtail, Giant plant response rating [5, 22] | Plant response rating, Galium [6, 17] | Plant response rating, Galium [6, 18] | Plant response rating, Ragweed [11, 17] | Plant response rating, Ragweed [11, 20] | Plant response rating, Ryegrass, Italian [12, 21] | Velvetleaf plant response rating [14, 22] | Plant response rating, Waterhemp [15, 20]

Cc1nn(C)c(=O)c(-c2cccc3ccc(Br)cc23)c1O [Compound 126]
30: Barnyardgrass plant response rating [1, 24] | Plant response rating, Crabgrass, Large [4, 17] | Plant response rating, Crabgrass, Large [4, 18] | Plant response rating, Velvetleaf [14, 16]
20: Plant response rating, Corn [3, 17] | Crabgrass, Large plant response rating [4, 24] | Plant response rating, Soybean [13, 17]
5: Plant response rating, Blackgrass [2, 16] | Blackgrass plant response rating [2, 24] | Plant response rating, Foxtail, Giant [5, 16] | Plant response rating, Soybean [13, 16]
98: Plant response rating, Galium [6, 17] | Plant response rating, Galium [6, 18] | Plant response rating, Morningglory [8, 17] | Plant response rating, Morningglory [8, 18] | Plant response rating, Velvetleaf [14, 17]
25: Plant response rating, Barnyardgrass [1, 16] | Plant response rating, Corn [3, 18] | Plant response rating, Foxtail, Giant [5, 18]
60: Nutsedge, Yellow plant response rating [9, 24] | Plant response rating, Oilseed Rape [10, 16] | Plant response rating, Oilseed Rape [10, 17]
95: Galium plant response rating [6, 24] | Lambsquarters plant response rating [7, 24] | Plant response rating, Lambsquarters [7, 17] | Plant response rating, Lambsquarters [7, 18] | Plant response rating, Morningglory [8, 16] | Morningglory plant response rating [8, 24] | Plant response rating, Ragweed [11, 17] | Plant response rating, Ragweed [11, 18] | Plant response rating, Velvetleaf [14, 18] | Plant response rating, Waterhemp [15, 17]
40: Plant response rating, Blackgrass [2, 18]
10: Plant response rating, Blackgrass [2, 17] | Plant response rating, Corn [3, 16] | Corn plant response rating [3, 24] | Plant response rating, Crabgrass, Large [4, 16] | Soybean plant response rating [13, 24]
35: Plant response rating, Barnyardgrass [1, 17] | Plant response rating, Nutsedge, Yellow [9, 16] | Plant response rating, Soybean [13, 18]
90: Plant response rating, Galium [6, 16] | Ragweed plant response rating [11, 24] | Plant response rating, Ryegrass, Italian [12, 17] | Plant response rating, Ryegrass, Italian [12, 18] | Waterhemp plant response rating [15, 24]
15: Foxtail, Giant plant response rating [5, 24] | Plant response rating, Foxtail, Giant [5, 17]
70: Plant response rating, Nutsedge, Yellow [9, 17]
100: Plant response rating, Waterhemp [15, 18]
75: Plant response rating, Waterhemp [15, 16]
80: Plant response rating, Lambsquarters [7, 16] | Oilseed Rape plant response rating [10, 24] | Plant response rating, Ryegrass, Italian [12, 16]
50: Plant response rating, Barnyardgrass [1, 18]
85: Plant response rating, Nutsedge, Yellow [9, 18] | Plant response rating, Oilseed Rape [10, 18] | Plant response rating, Ragweed [11, 16] | Ryegrass, Italian plant response rating [12, 24] | Velvetleaf plant response rating [14, 24]
